In patent publication US9737587B2, “Treatment of autism spectrum disorders with ciliary neurotrophic factor peptide mimetic” (The Research Foundation for Mental Hygiene, Inc., priority 2014, dated 2017):
No end group written: not given here.

Assays:
mice or rats = details: in vivo
human = human clinical trials; cited from earlier work

VGDGGLFEKKL [Peptide P6, VGDGGLFEKKL]
adverse effects associated with the full-length protein (CNTF) (mice or rats): does not cause adverse effects associated with the full-length protein | half-life (in vivo): > 6 h

B1: recombinant CNTF: recombinant full-length ciliary neurotrophic factor (protein, UniProt P26441 1-200, looked up)
chain: MAFTEHSPLTPHRRDLCSRSIWLARKIRSDLTALTESYVKHQGLNKNINLDSADGMPVASTDQWSELTEAERLQENLQAYRTFHVLLARLLEDQQVHFTPTEGDFHQAIHTLLLQVAAFAYQIEELMILLEYKIPRNEADGMPINVGDGGLFEKKLWGLKVLQELSQWTVRSIHDLRFISSHQTGIPARGSHYIANNKKM
modifications: full-length
notes: recombinant full-length ciliary neurotrophic factor
adverse effects (human): anorexia, skeletal muscle loss, hyperalgesia, severe cramps, and muscle pain
